Data from patent US20020004458A1, “Methods for inducing production of isoflavone levels in plants using nuclear receptor ligands” (priority 2000, published 2002).

Tests used:
Type in all cases: in vivo
[1] = test system: soybean cotyledons (cultivar Williams); assay: Soybean snapped cotyledon assay: loading of isoflavone (daidzein) conjugate pools
Protocol: The snapped cotyledon assay is a minimal wound assay used to investigate the effects of test compounds in a non-primed background. The assay is performed by snapping cotyledons in two and placing the petiole side down in 0.5% water agar. Ten snapped cotyledons are used per treatment, and the subepidermal cells exposed by snapping are treated with glucan defense elicitor and/or the effector being examined. The cotyledons are incubated in the light for 48 hr as in the cut cotyledon assay. Both proximal (first cell layer) and distal (second and third cell layers) are harvested for analysis by HPLC (see below). Full details of this assay can be found in the publication: Graham, T. L. and Graham, M. Y. 1996. Signaling in soybean phenylpropanoid responses: dissection of primary, secondary and conditioning-effects of light, wounding and elicitor treatments. Plant Physiol. 110:1123-1133, which is specifically incorporated herein by reference.
The snapped cotyledon assay is “naive”. That is, it is not pre-disposed or primed for competency for the elicitation of phytoalexin glyceollin in response to the glucan elicitor. Thus, treatment with the glucan elicitor induces the formation of the isoflavones daidzein and genistein, but very little glyceollin. This is an excellent assay to study the effects of a chemical treatment on isoflavone metabolism by itself or in combination with the glucan. In the absence of the glucan, it gives an excellent picture of the effects of the compound alone on isoflavone metabolism. In the presence of the glucan, it tells us if the test compound can induce elicitation competency for the glyceollin response to the glucan.
(§1) High performance liquid chromatography (HPLC) is the . method of choice for determining the levels of isoflavone defense compounds in soybean. With a single HPLC analysis, one gets a complete and quantitative profile of up to 50 or more aromatic compounds, including all the isoflavones and their conjugates and the phytoalexins, including glyceollin. As little as 20 mg of plant tissue is needed and the method can be readily applied to cotyledon, leaf or any soybean tissue. This analytical method allows us to determine the nmoles/gm of each metabolite, which can then readily be processed to compare the percent increase or decrease of a given metabolite in comparison to either water or glucan treated control tissues. Routinely, tissues are extracted in 80% ethanol and subjected to water/acetonitrile gradient elution from a C18 reverse phase HPLC column. Full details of this procedure can be found in the publication: Graham, T. L. 1991. A Rapid, High Resolution High Performance Liquid Chromatography Profiling Procedure for Plant and Microbial Aromatic Secondary Metabolites. Plant Physiology 95:584-593, which is specifically incorporated herein by reference.
Cotyledons (10 per treatment) from 7 day old Williams variety soybean were treated with a formulation comprising estrogens, estrogen agonists, and peroxisome proliferators. Each NRL was dissolved either in water or first in isopropanol to give a saturated solution followed by rapid dilution in water. […] NRLs were tested over a concentration range of about 10 uM to 1 mM, using serial 3 fold dilutions from 1 mM. NRLs were tested both alone and in the presence of 30 ug/ml of the glucan elicitor from the fungal pathogen Phytophthora sojae. Concentrations of the NRL and glucan noted here are final concentrations on the treated cotyledon.
The exposed surface of each snapped cotyledon was treated with 7 μL of the NRL followed by 7 μL of the glucan or water. Cotyledons were incubated in constant light (200 t;,Einsetins) for 48 hr. At 48 hr, a thin (translucent) section was harvested from the treated cotyledon surface. Sections from the 10 cotyledons for each treatment were pooled and extracted in 80% ethanol (400 μL for each 50 mG fresh weight). The extract was then subjected to HPLC as described above. […]

[2] = test system: soybean cotyledons (cultivar Williams); assay: Soybean cut cotyledon assay: loading of daidzein conjugate / isoflavone pools; conditions: for Percent increase in total daidzein conjugate pools compared to a water control (Table 2) / Percent increase in total daidzein conjugate pools compared to a water control (Table 4): 33 uM, average of two experiments
Protocol: (§2) The cut cotyledon assay is used to investigate both the ability of the nuclear receptor ligand to activate basal elicitation competency in plants, and to evaluate the ability of a second compound such as the glucan defense elicitor from the fungal pathogen Phytophthora sojae to enhance glyceollin elicitation competency in plants in which the isoflavone pools were “loaded” by the action of the ligand. The level of isoflavones in the cotyledon tissues are measured after the addition of different nuclear receptor ligands to determine the effectiveness of each in inducing the basal production of isoflavones in cotyledon tissues. In such studies, the addition of the nuclear receptor ligand first “primes” the cut cotyledon, i.e., increases the levels of the isoflavone daidzen. That is, the competency for the elicitation of the phytoalexin glyceollin in response to the glucan elicitor from Phytophthora sojae is already partially activated. This means that increases in the isoflavone daidzein, which is the precursor for glyceollin, are usually rapidly shunted into glyceollin when the glucan defense elicitor is added to the system. Thus, the ability of the ligand to enhance glyceollin elicitation competency by “loading” the isoflavone pools can also be measured.
(§3) Cotyledons from 7-8 day old soybean seedlings are removed from the plant and cut on the lower surface to expose subepidermal tissues. A 30 p,L drop of test compound (elicitor and/or loader) is placed on the cut surface. Ten cotyledons are used per treatment and arranged in a petri plate containing a wet filter paper to keep the cotyledons moist. After incubation at room temperature at approximately 200 p.Einsteins of light for 48 hr the cotyledon tissues are harvested for analysis. Tissues for analysis are harvested by cutting a vertical column of cells from the cotyledon using a number 1 cork borer. The column of cells is then subsampled by cutting slices of cells progressively away from the original cut surface. The first section is approximately 4 cell layers thick and the second two are approximately 8 cell layers thick. These allow the examination of proximal and distal effects of treatments, respectively. Tissues are analyzed by HPLC as noted below. Full details of this assay can be found in the publication: Graham, T. L., and Graham, M. Y. 1991. Glyceollin Elicitors Induce Major But Distinctly Different Shifts in Isoflavonoid Metabolism in Local and Distal Cell Populations. Molecular Plant Microbe Interactions 4:60-68, which is specifically incorporated herein by reference.
as §1
(§4) Cotyledons (10 per treatment) from 7 day old Williams variety soybean were treated with a formulation comprising estrogens, estrogen agonists, and peroxisome proliferators. […]

[3] = test system: cotyledons of lima bean, mung bean, green bean, peanuts, and chickpeas; assay: Cut cotyledon assay on legumes other than soybean: increase in isoflavones; conditions: ergosterol at 100 p,M; range in each plant species; isoflavones identified by ultraviolet spectra
soybean primary leaves = assay: Soybean leaf infiltration: isoflavone increases after ergosterol treatment; conditions: 48 hours, over control
Protocol: as §1
True leaves of soybean plants are also treated as described above in Example 1. For tests on true leaves of soybean or other plants, two methods are used. In the laboratory a small spot on the leaves is vacuum filtrated using a filter disc platform hooked to a water aspirator. The leaf is placed on the filter disc platform and mild suction applied. A drop of the glucan elicitor and the nuclear receptor ligand formulation is then placed on the exposed surface of the leaf and allowed to infiltrate the tissue through the leaf stomatal pores. For the greenhouse or field, the nuclear receptor ligand is added to a surfactant to emulsify and disperse the ligand. In all of these assays, the tissues are again analyzed by HPLC as described above.
Moreover, the isoflavone formononetin is normally found only as a trace metabolite in soybean tissues. It is commonly found in chickpea. Treatment of soybean leaves with a nuclear receptor ligand, however, caused very significant accumulations of daidzein and formononetin aglycones and genistein conjugates. […] Ergosterol was directly infiltrated into the primary leaves, which were analyzed after 48 hours.

[4] = test system: soybean cotyledons (cultivar Williams); assay: Soybean cut cotyledon assay: potentiation of glyceollin (phytoalexin) elicitation by glucan elicitor; conditions: 33 uM, applied immediately before glucan elicitor and 10 uM orthovanadate, 48 hr, average of two experiments
Protocol: as §2, §3, §1, §4

[5] = 33 uM, average of two experiments
[6] = ergosterol 1 micromolar infiltrated into primary leaves
[7] = ergosterol 10 micromolar infiltrated into primary leaves
[8] = ergosterol 100 micromolar infiltrated into primary leaves
[9] = cut cotyledon assay, Williams cotyledons, concentrations 50-500 p,M

Compound	Percent increase in daidzein conjugate pools compared to a water control (Table 3) [1, 5]	Percent increase in total daidzein conjugate pools compared to a water control (Table 2) ([2]; cut cotyledon assay)	Percent increase in total daidzein conjugate pools compared to a water control (Table 4) ([2]; cut cotyledon assay)	Percent increase in glyceollin elicitation compared to a glucan elicitor control [4]	Range of increase of isoflavones over the concentration range [2, 9]	other results
CC(C)[C@@H](C)/C=C/[C@@H](C)[C@H]1CC[C@H]2C3=CC=C4C[C@@H](O)CC[C@]4(C)[C@H]3CC[C@]12C [Ergosterol, ergosterol]	+60%	60%	60%	260%	–	Increases in isoflavones [3]: 2-60 fold; Increase in Daidzein Aglycone (soybean primary leaves; [6]): 5X; Increase in Formononetin Aglycone (soybean primary leaves; [6]): 24X; Increase in Genistein Conjugates (soybean primary leaves; [6]): 2X; Increase in Daidzein Aglycone (soybean primary leaves; [7]): 3X; Increase in Formononetin Aglycone (soybean primary leaves; [7]): 27X; Increase in Genistein Conjugates (soybean primary leaves; [7]): 1.1X; Increase in Daidzein Aglycone (soybean primary leaves; [8]): 2.4X; Increase in Formononetin Aglycone (soybean primary leaves; [8]): 4X; Increase in Genistein Conjugates (soybean primary leaves; [8]): None
C[C@]12CCC(=O)C=C1CC[C@@H]1[C@@H]2[C@@H](O)C[C@@]2(C)[C@H]1CC[C@]2(O)C(=O)CO [hydrocortisone]	–	–	–	–	25-50%	–
C[C@]12CC[C@@H]3c4ccc(O)cc4CC[C@H]3[C@@H]1C[C@@H](O)[C@@H]2O [Estriol, estriol]	+45%	45%	45%	177%	–	–
O=c1oc2cc(O)ccc2c2oc3cc(O)ccc3c12 [Coumestrol]	–	54%	54%	226%	–	–
CC(C)(Oc1ccccc1Cl)C(=O)O [CPMPA, 2-(o-chlorophenoxy)-2-methylpropionic acid]	+42%	–	–	–	–	–
CC(C)(Oc1ccc(C2CC2(Cl)Cl)cc1)C(=O)O (centres unmarked) [Ciprofibrate, ciprofibrate]	+52%	52%	52%	199%	–	–
CC/C(=C(/CC)c1ccc(O)cc1)c1ccc(O)cc1 [Diethylstilbestrol, diethylstilbestrol]	–	36%	38%	86%	–	–
O=c1c(-c2ccc(O)cc2)coc2cc(O)cc(O)c12 [Genistein, genistein]	–	–	–	–	–	Percent increase in daidzein conjugate pools compared to a water control (Table 3) ([1]; genistein applied as smaller doses on an hourly basis for 8 hours): +54%
C[C@@H]1C[C@H]2[C@@H]3CCC4=CC(=O)C=C[C@]4(C)[C@@]3(F)[C@@H](O)C[C@]2(C)[C@@]1(O)C(=O)CO [dexamethasone]	–	–	–	–	0-10%	–
C/C=C(/C(=C/C)c1ccc(O)cc1)c1ccc(O)cc1 [Dienestrol, dienestrol]	+28%	28%	28%	75%	–	–
C[C@H]1CCCC(=O)CCC/C=C/c2cc(O)cc(O)c2C(=O)O1 [Zearalenone, zearalenone]	–	58%	58%	242%	–	–
CC(=O)[C@H]1CC[C@H]2[C@@H]3CCC4=CC(=O)CC[C@]4(C)[C@H]3CC[C@]12C [Progesterone, progesterone]	–	–	–	–	20-60%	–
CC(=O)[C@H]1CC[C@H]2[C@@H]3CC=C4C[C@@H](O)CC[C@]4(C)[C@H]3CC[C@]12C [5-pregnenolone]	–	–	–	–	5-20%	–
C[C@]12CC[C@@H]3c4ccc(O)cc4CC[C@H]3[C@@H]1CC[C@@H]2O [Beta-Estradiol, 17-beta-estradiol]	+64%	64%	64%	205%	–	–
C[C@]12CC[C@@H](O)C[C@@H]1CC[C@@H]1[C@@H]2CC[C@]2(C)C(=O)CC[C@@H]12 [androsterone]	–	–	–	–	–	Range of increase of isoflavones over the concentration range ([2]; in vivo): 30-40%
C[C@]12CCC(=O)C=C1CC[C@@H]1[C@@H]2C(=O)C[C@@]2(C)[C@H]1CC[C@]2(O)C(=O)CO [cortisone]	–	–	–	–	30-100%	–
